Measurements: paper PMC11537005, “Antimicrobial activity of novel symmetrical antimicrobial peptides centered on a hydrophilic motif against resistant clinical isolates: in vitro and in vivo analyses” (Microbiology Spectrum, 2024)
In brackets after ≈: the same amount, converted by molar mass. Residues, ends and D or L forms follow the SMILES beside them.

Legend:
MRSA 103 [1] = assay: microbe, parasite or virus in culture; format: cell-based, Staphylococcus aureus
Description: (§1) The test strains (Gram-negative: E. coli ATCC 25922, E. coli k88, E. coli k99, E. coli 987, P. aeruginosa ATCC PAO1, Salmonella pullorum ATCC 7731, S. pullorum ATCC 7913, and S. typhimurium ATCC 14028; Gram-positive: S. aureus ATCC 29213, S. aureus ATCC 25923, S. epidermidis ATCC 12228, MRSA ATCC 43300, MRSA 544, MRSA 103, L. rhamnosus ATCC 8014, and L. rhamnosus 1.9021) were maintained at the School of Medicine in the Shenzhen Campus of Sun Yat-sen University. Mouse RBCs were extracted from a specific pathogen-free (SPF) grade mouse.
(§2) The peptides' antimicrobial effectiveness was evaluated using a method derived from a previous publication ([59]) and modified for use in this study. Single colonies were seeded and cultured in brain–heart infusion (BHI) medium at 37°C until log-phase growth after adjustment to OD600 = 0.4, which was followed by a 1000-fold dilution with phosphate-buffered saline (PBS). Then, in sterile 96-well plates, twofold serial dilutions of the peptides were added, followed by 50-µL aliquots of the bacterial cell solution. The ultimate concentrations of the antibacterial agents were 0.125–64 μM. Moreover, bacteria and PBS were added to the TSB as positive and negative controls, respectively. The plates were placed in an incubator set at 37°C for 18 hours. The trial was conducted a minimum of three times in sets of three. Successful completion of the experiment was confirmed by observing the turbidity of the positive control and clarity of the negative control culture medium. The MIC was defined as the lowest peptide concentration required to inhibit bacterial growth.

MRSA 544 [2] = assay: microbe, parasite or virus in culture; format: cell-based, Staphylococcus aureus
Description: as §1, §2

MRSA 103 [3] = assay: microbe, parasite or virus in culture; format: cell-based, Staphylococcus aureus; remark: listed apart in the source
Method: as §2
(§3) For MBC analysis, viable cells from all wells with no visible bacterial growth were determined on the BHI agar plates. After 24 hours of cultivation at 37°C, the MBC endpoint was defined as the minimum concentration at which 99.9% of the bacterial population was killed.

MRSA 544 [4] = assay: microbe, parasite or virus in culture; format: cell-based, Staphylococcus aureus; remark: listed apart in the source
Method: as §2, §3

clinically isolated MRSA [5] = assay: microbe, parasite or virus in culture
Description: as §1
as §2, with “Successful completion of the experiment was confirmed by observing the turbidity of the positive control and clarity of the negative control culture medium.” left out

MRSA 544 [6] = assay: Time-kill kinetics; format: cell-based, Staphylococcus aureus; details: 2 × MIC, 4 × MIC and 8 × MIC, 0–7 hours
Method: MRSA 544 was cultured to the logarithmic phase (OD600 = 0.4) and diluted 1000-fold with PBS. […] At various periods (0, 5, 10, 15, 20, 25, 30, and 60 minutes), microbial suspensions were serially diluted (10-, 100-, and 1000-fold) with PBS, and 10 µL of the diluted suspension was plated on tryptic soy agar (TSA) medium. Single colonies of microorganisms were counted after 12-hour incubation at 37°C. The processing steps of vancomycin were the same as those of AMP W5, but with different concentrations (2 × MIC, 4 × MIC, and 8 × MIC) and periods (0, 1, 2, 3, 4, 5, 6, and 7 hours). Average values were calculated and plotted after six repetitions.

clinically isolated MRSA [7] = format: cell-based, Staphylococcus aureus; details: 18 h
Method: as §2, §3

standard MRSA strains = format: cell-based, Staphylococcus aureus; details: 18 h
Description: as §1
as §2, with “Successful completion of the experiment was confirmed by observing the turbidity of the positive control and clarity of the negative control culture medium. The MIC was defined as the lowest peptide concentration required to inhibit bacterial growth.” left out

BALB/c mice = assay: In vivo safety assessment; parameters: species or system mouse; details: 10 mg/kg intravenously, five days after injection
Method: The in vivo safety assessment and antibacterial activity analysis of the peptides were performed using a murine skin infection model wherein 25 SPF-grade 6- to 8-week-old female mice (BALB/c) were randomly divided into five cages (n = 5 in each cage). The animals were housed individually in ventilated cages (IVC), at a temperature of 20°C–24°C, humidity of 50%–60%, and a 12-hour day–night cycle.
Two groups of five mice were randomly divided and intravenously injected with 100 µL PBS or a 10 mg/kg solution of AMP W5 diluted with PBS. Five days after injection, all animals were euthanized. The weight of each mouse was determined from day 0 to day 5. Blood samples were collected to analyze hepatorenal damage, and an automatic biochemical analyzer was used to measure indicators, including ALT, AST, ALP, BUN, CREA, and LDH. The livers and kidneys of the mice were stained with hematoxylin/eosin (HE) for histological analysis.

[8] = clinically isolated MRSA strains, 37°C, 18 hours
[9] = Staphylococcus aureus, MRSA, 18 h
[10] = Staphylococcus aureus, MRSA, 24 h

| Structure (SMILES) | MIC (MRSA 103 [1]; 103, 18 h) [µM] | MIC (MRSA 544 [2]; 544, 18 h) [µM] | MBC (MRSA 103 [3]; 103, 24 h) [µM] | MBC (MRSA 544 [4]; 544, 24 h) [µM] | also measured |
| --- | --- | --- | --- | --- | --- |
| N=C(N)NCCC[C@H](NC(=O)CNC(=O)[C@H](CO)NC(=O)CNC(=O)[C@H](CCCNC(=N)N)NC(=O)[C@H](CCCNC(=N)N)NC(=O)[C@H](CCCNC(=N)N)NC(=O)[C@H](Cc1c[nH]c2ccccc12)NC(=O)[C@@H](N)Cc1c[nH]c2ccccc12)C(=O)N[C@@H](CCCNC(=N)N)C(=O)N[C@@H](CCCNC(=N)N)C(=O)N[C@@H](Cc1c[nH]c2ccccc12)C(=O)N[C@@H](Cc1c[nH]c2ccccc12)C(N)=O [W4] (H-WWRRRGSGRRRWW-NH2) | 16 (≈ 30.4 µg/mL) | 16 (≈ 30.4 µg/mL) | 32 (≈ 60.8 µg/mL) | 32 (≈ 60.8 µg/mL) | – |
| N=C(N)NCCC[C@H](NC(=O)CNC(=O)[C@H](CO)NC(=O)CNC(=O)[C@H](CCCNC(=N)N)NC(=O)[C@H](CCCNC(=N)N)NC(=O)[C@@H](N)Cc1c[nH]c2ccccc12)C(=O)N[C@@H](CCCNC(=N)N)C(=O)N[C@@H](Cc1c[nH]c2ccccc12)C(N)=O [W2] (H-WRRGSGRRW-NH2) | > 64 | > 64 | > 64 | > 64 | – |
| N=C(N)NCCC[C@H](NC(=O)CNC(=O)[C@H](CO)NC(=O)CNC(=O)[C@H](CCCNC(=N)N)NC(=O)[C@@H](N)Cc1c[nH]c2ccccc12)C(=O)N[C@@H](Cc1c[nH]c2ccccc12)C(N)=O [W1] (H-WRGSGRW-NH2) | > 64 | > 64 | > 64 | > 64 | – |
| CC[C@H](C)[C@H](NC(=O)CN)C(=O)NCC(=O)N[C@@H](C)C(=O)N[C@H](C(=O)N[C@@H](CC(C)C)C(=O)N[C@@H](CCCCN)C(=O)N[C@H](C(=O)N[C@@H](CC(C)C)C(=O)N[C@H](C(=O)N[C@H](C(=O)NCC(=O)N[C@@H](CC(C)C)C(=O)N1CCC[C@H]1C(=O)N[C@@H](C)C(=O)N[C@@H](CC(C)C)C(=O)N[C@H](C(=O)N[C@@H](CO)C(=O)N[C@@H](Cc1c[nH]c2ccccc12)C(=O)N[C@H](C(=O)N[C@@H](CCCCN)C(=O)N[C@@H](CCCNC(=N)N)C(=O)N[C@@H](CCCCN)C(=O)N[C@@H](CCCNC(=N)N)C(=O)N[C@@H](CCC(N)=O)C(=O)N[C@@H](CCC(N)=O)C(N)=O)[C@@H](C)CC)[C@@H](C)CC)[C@@H](C)O)[C@@H](C)O)C(C)C)C(C)C [Melittin, reference compound] | – | – | – | – | MIC (MRSA 103 [1]; MRSA 103, twofold serial dilutions 0.125–64 μM, 96-well plates, 37°C, 18 hours, minimum of three times in sets of three): 4 µM (≈ 11.4 µg/mL); MIC (MRSA 544 [2]; MRSA 544, twofold serial dilutions 0.125–64 μM, 96-well plates, 37°C, 18 hours, minimum of three times in sets of three): 4 µM (≈ 11.4 µg/mL); MBC as multiple of MIC (MRSA 103 [3]; MRSA 103): 2 × MIC; MBC (MRSA 103 [3]; MRSA 103, BHI agar plates, 24 hours at 37°C, minimum concentration at which 99.9% killed): 8 µM (≈ 22.8 µg/mL); MBC (MRSA 544 [4]; MRSA 544, BHI agar plates, 24 hours at 37°C, minimum concentration at which 99.9% killed): 4 µM (≈ 11.4 µg/mL); MIC (clinically isolated MRSA [5]; [8]): 4 µM (≈ 11.4 µg/mL) |
| CN[C@H](CC(C)C)C(=O)N[C@H]1C(=O)N[C@@H](CC(N)=O)C(=O)N[C@H]2C(=O)N[C@H]3C(=O)N[C@H](C(=O)N[C@H](C(=O)O)c4cc(O)cc(O)c4-c4cc3ccc4O)[C@H](O)c3ccc(c(Cl)c3)Oc3cc2cc(c3O[C@@H]2O[C@H](CO)[C@@H](O)[C@H](O)[C@H]2O[C@H]2C[C@](C)(N)[C@H](O)[C@H](C)O2)Oc2ccc(cc2Cl)[C@H]1O [Vancomycin, reference compound] | – | – | – | – | MIC (MRSA 103 [1]; [9]): 0.5 µM (≈ 0.725 µg/mL); MIC (MRSA 544 [2]; [9]): 0.5 µM (≈ 0.725 µg/mL); MBC as multiple of MIC (MRSA 103 [3]; MRSA 103): 8 × MIC; MBC (MRSA 103 [3]; [10]): 4 µM (≈ 5.8 µg/mL); MBC as multiple of MIC (MRSA 544 [4]; MRSA 544): 8 × MIC; MBC (MRSA 544 [4]; [10]): 4 µM (≈ 5.8 µg/mL); MIC (clinically isolated MRSA [5]; [9]): 0.5 µM (≈ 0.725 µg/mL); Bactericidal effect in time-kill assay (MRSA 544 [6]): no signs of complete eradication even after 7 hours |
| N=C(N)NCCC[C@H](NC(=O)CNC(=O)[C@H](CO)NC(=O)CNC(=O)[C@H](CCCNC(=N)N)NC(=O)[C@H](CCCNC(=N)N)NC(=O)[C@H](CCCNC(=N)N)NC(=O)[C@H](Cc1c[nH]c2ccccc12)NC(=O)[C@H](Cc1c[nH]c2ccccc12)NC(=O)[C@@H](N)Cc1c[nH]c2ccccc12)C(=O)N[C@@H](CCCNC(=N)N)C(=O)N[C@@H](CCCNC(=N)N)C(=O)N[C@@H](Cc1c[nH]c2ccccc12)C(=O)N[C@@H](Cc1c[nH]c2ccccc12)C(=O)N[C@@H](Cc1c[nH]c2ccccc12)C(N)=O [W5] (H-WWWRRRGSGRRRWWW-NH2) | 8 (≈ 18.2 µg/mL) | 8 (≈ 18.2 µg/mL) | 8 (≈ 18.2 µg/mL) | 8 (≈ 18.2 µg/mL) | MIC (clinically isolated MRSA [5]; [8]): 8 µM (≈ 18.2 µg/mL); MBC (clinically isolated MRSA [7]): 8 µM (≈ 18.2 µg/mL); MIC (standard MRSA strains): 2 µM (≈ 4.55 µg/mL); HE staining of liver and kidney (BALB/c mice): no hepatotoxicity or nephrotoxicity |
| N=C(N)NCCC[C@H](NC(=O)CNC(=O)[C@H](CO)NC(=O)CNC(=O)[C@H](CCCNC(=N)N)NC(=O)[C@H](CCCNC(=N)N)NC(=O)[C@H](CCCNC(=N)N)NC(=O)[C@@H](N)Cc1c[nH]c2ccccc12)C(=O)N[C@@H](CCCNC(=N)N)C(=O)N[C@@H](CCCNC(=N)N)C(=O)N[C@@H](Cc1c[nH]c2ccccc12)C(N)=O [W3] (H-WRRRGSGRRRW-NH2) | > 64 | > 64 | > 64 | > 64 | – |
